Test results as given in patent publication US11578056B2, “Solid forms comprising (S)-2-(2,6-dioxopiperidin-3-yl)-4-((2-fluoro-4-((3-morpholinoazetidin-1-yl)methyl)benzyl)amino)isoindoline-1,3-dione and salts thereof, and compositions comprising and methods of using the same” (Celgene Corporation, priority 2019, dated 2023).

Tests used:
Type in all cases: physicochemical
[1] = Dynamic vapor sorption (DVS) hygroscopicity; conditions: for sorption/desorption reversibility (DVS): during two full cycles; for moisture picked up (DVS): from dry up to 90% RH
Method: Dynamic vapor sorption (DVS) was measured using DVS advantage (Surface Measurement Systems Ltd). The samples were tested under isotherm (25° C.) at a targeted RH of 0 to 95% full cycle in step mode. For an isotherm test, the chamber temperature is maintained by a water bath at constant 25.0±1.0° C. The relative humidity in the sample chamber is generated by combining different flows of wet and dry nitrogen with variable flow rates. The analysis was performed in 10% RH increments. Sampling rate is 1 sec save data rate is 20 sec. The dm/dt (%) value was set at 0.001 with a dm/dt window of 5 min., a minimum stability duration time of 10 min, and a maximum stage time of 180 min. The sample's equilibrium weight corresponding to each RH was recorded. A sorption isotherm is obtained by plotting equilibrium moisture content versus RH.

[2] = Shear sensitivity (compression, XRPD); conditions: compressed under 700 and 1100 lbs for 1 minute
Method: Shear Sensitivity: Form A of a hydrochloride salt of Compound 1 was compressed under 700 and 1100 lbs for 1 minute and analyzed by XRPD.

[3] = Solid state stability, Accelerated Stability Assessment Program (ASAP)
Method: (§1) Solid State Stability: Solid state stability of Form A of a hydrochloride salt of Compound 1 was evaluated using Accelerated Stability Assessment Program (ASAP). Forced degradation storage conditions were used between 60-80° C. and 0-80% RH for up to 2 weeks. A photostress study under 2 times ICH conditions was also conducted in the solid state. The solid samples were analyzed for both chemical and chiral stability. At the end of the study, the crystalline form of the compound was verified by XRPD.

[4] = Solid state photostress study under 2 times ICH conditions
Method: as §1

[5] = Long term solid state stability (double LDPE bags in HDPE container)
Method: Long Term Solid State Stability: Form A of a hydrochloride salt of Compound 1 (packaged in double LDPE bags in HDPE container) was stored up to 3 months at 25° C./60% RH, 30° C./65% RH, and 40° C./75% RH storage conditions. […] Therefore, a re-test period of 12 months is proposed when stored at or below 25° C.

Cl.O=C1CC[C@H](N2C(=O)c3cccc(NCc4ccc(CN5CC(N6CCOCC6)C5)cc4F)c3C2=O)C(=O)N1
solid form after DVS ([1]; after DVS): remained as Form A | hygroscopicity (DVS) ([1]; below 90% RH): moderate hygroscopic | water uptake expressed as moles of water (DVS) ([1]; corresponding to the about 3.0% w/w uptake): about 1 mole | sorption/desorption reversibility (DVS) [1]: almost reversible | moisture picked up (DVS) [1]: ~2.9 % wt | mass increase (DVS) ([1]; increase in RH from about 0% to about 95%): about 3.0% | water uptake (DVS) ([1]; sorption at all humidities, FIG. 7): about 3.0 % w/w | solid form after compression (XRPD) [2]: remained the same | changes in assay ([3]; 60-80° C., 0-80% RH, up to 2 weeks, except 80° C./0% RH after 1 week and 2 weeks): < 5% | LC Purity (%) ([3]; 60° C., 50% RH, 7 days): 98.51% | R-isomer % area ([3]; 60° C., 50% RH, 7 days): 1.26 % area | LC Purity (%) ([3]; 60° C., 50% RH, 14 days): 98.47% | R-isomer % area ([3]; 60° C., 50% RH, 14 days): 1.28 % area | LC Purity (%) ([3]; 70° C., 20% RH, 7 days): 98.28% | R-isomer % area ([3]; 70° C., 20% RH, 7 days): 1.26 % area | LC Purity (%) ([3]; 70° C., 20% RH, 14 days): 98.50% | R-isomer % area ([3]; 70° C., 20% RH, 14 days): 1.26 % area | LC Purity (%) ([3]; 70° C., 75% RH, 7 days): 98.48% | R-isomer % area ([3]; 70° C., 75% RH, 7 days): 1.34 % area | LC Purity (%) ([3]; 70° C., 75% RH, 14 days): 98.24% | R-isomer % area ([3]; 70° C., 75% RH, 14 days): 1.49 % area | LC Purity (%) ([3]; 80° C., 0% RH, 7 days): 91.18% | R-isomer % area ([3]; 80° C., 0% RH, 7 days): 1.77 % area | LC Purity (%) ([3]; 80° C., 0% RH, 14 days): 86.98% | R-isomer % area ([3]; 80° C., 0% RH, 14 days): 1.28 % area | LC Purity (%) ([3]; 80° C., 40% RH, 7 days): 98.32% | R-isomer % area ([3]; 80° C., 40% RH, 7 days): 1.77 % area | LC Purity (%) ([3]; 80° C., 40% RH, 14 days): 98.29% | R-isomer % area ([3]; 80° C., 40% RH, 14 days): 1.30 % area | LC Purity (%) ([3]; 80° C., 70% RH, 7 days): 98.43% | R-isomer % area ([3]; 80° C., 70% RH, 7 days): 1.36 % area | LC Purity (%) ([3]; 80° C., 70% RH, 14 days): 98.21% | R-isomer % area ([3]; 80° C., 70% RH, 14 days): 1.45 % area | change of crystalline form (XRPD) ([3]; 80° C./70% RH after 10 days vs control): No change of crystalline form | ASAP stability conclusion ([3]; ASAP stability results): can be considered stable | LC Purity (%) ([3]; Heat/Humidity Control): 98.44% | R-isomer % area ([3]; Heat/Humidity Control): 1.26 % area | maximum change in chiral purity ([3]; across all conditions, maximum under high humidity conditions): ≤ 0.2% | LC Purity (%) ([4]; 2x ICH Photo Stressed): 94.80% | R-isomer % area ([4]; 2x ICH Photo Stressed): 1.17 % area | LC Purity (%) ([4]; Photo Stressed Control): 98.45% | R-isomer % area ([4]; Photo Stressed Control): 1.27 % area | changes in assay ([4]; photostability conditions (2 times ICH), solid state): < 4% | Appearance (Yellow powder) ([5]; 25° C./60% RH, 0 Month): Conforms | Chiral Purity (%) ([5]; 25° C./60% RH, 0 Month): 96.0% | Chromatographic Purity (%) ([5]; 25° C./60% RH, 0 Month): 98.6% | Solid forms (XRPD), consistent with Form A ([5]; 25° C./60% RH, 0 Month): Conforms | Total Related Impurities (%) ([5]; 25° C./60% RH, 0 Month): 1.41% | Water (%) ([5]; 25° C./60% RH, 0 Month): 1.4% | Appearance (Yellow powder) ([5]; 25° C./60% RH, 1 Month): Conforms | Chiral Purity (%) ([5]; 25° C./60% RH, 1 Month): 95.7% | Chromatographic Purity (%) ([5]; 25° C./60% RH, 1 Month): 98.5% | Solid forms (XRPD), consistent with Form A ([5]; 25° C./60% RH, 1 Month): Conforms | Total Related Impurities (%) ([5]; 25° C./60% RH, 1 Month): 1.50% | Water (%) ([5]; 25° C./60% RH, 1 Month): 1.7% | Appearance (Yellow powder) ([5]; 25° C./60% RH, 3 Month): Conforms | Chiral Purity (%) ([5]; 25° C./60% RH, 3 Month): 95.7% | Chromatographic Purity (%) ([5]; 25° C./60% RH, 3 Month): 98.5% | Solid forms (XRPD), consistent with Form A ([5]; 25° C./60% RH, 3 Month): Conforms | Total Related Impurities (%) ([5]; 25° C./60% RH, 3 Month): 1.55% | Water (%) ([5]; 25° C./60% RH, 3 Month): 1.9% | long term solid state stability ([5]; 25° C./60% RH, 30° C./65% RH and 40° C./75% RH for 3 months, double LDPE bags in HDPE container): demonstrate stability | Appearance (Yellow powder) ([5]; 30° C./65% RH, 0 Month): Conforms | Chiral Purity (%) ([5]; 30° C./65% RH, 0 Month): 96.0% | Chromatographic Purity (%) ([5]; 30° C./65% RH, 0 Month): 98.6% | Total Related Impurities (%) ([5]; 30° C./65% RH, 0 Month): 1.41% | Water (%) ([5]; 30° C./65% RH, 0 Month): 1.4% | Appearance (Yellow powder) ([5]; 30° C./65% RH, 1 Month): Conforms | Chiral Purity (%) ([5]; 30° C./65% RH, 1 Month): 94.5% | Chromatographic Purity (%) ([5]; 30° C./65% RH, 1 Month): 98.4% | Total Related Impurities (%) ([5]; 30° C./65% RH, 1 Month): 1.56% | Water (%) ([5]; 30° C./65% RH, 1 Month): 1.9% | Appearance (Yellow powder) ([5]; 30° C./65% RH, 3 Month): Conforms | Chiral Purity (%) ([5]; 30° C./65% RH, 3 Month): 95.8% | Chromatographic Purity (%) ([5]; 30° C./65% RH, 3 Month): 98.4% | Total Related Impurities (%) ([5]; 30° C./65% RH, 3 Month): 1.63% | Water (%) ([5]; 30° C./65% RH, 3 Month): 2.0% | Appearance (Yellow powder) ([5]; 40° C./75% RH, 0 Month): Conforms | Chiral Purity (%) ([5]; 40° C./75% RH, 0 Month): 96.0% | Chromatographic Purity (%) ([5]; 40° C./75% RH, 0 Month): 98.6% | Solid forms (XRPD), consistent with Form A ([5]; 40° C./75% RH, 0 Month): Conforms | Total Related Impurities (%) ([5]; 40° C./75% RH, 0 Month): 1.41% | Water (%) ([5]; 40° C./75% RH, 0 Month): 1.4% | Appearance (Yellow powder) ([5]; 40° C./75% RH, 1 Month): Conforms | Chiral Purity (%) ([5]; 40° C./75% RH, 1 Month): 96.0% | Chromatographic Purity (%) ([5]; 40° C./75% RH, 1 Month): 98.5% | Solid forms (XRPD), consistent with Form A ([5]; 40° C./75% RH, 1 Month): Conforms | Total Related Impurities (%) ([5]; 40° C./75% RH, 1 Month): 1.52% | Water (%) ([5]; 40° C./75% RH, 1 Month): 1.8% | Appearance (Yellow powder) ([5]; 40° C./75% RH, 3 Month): Conforms | Chiral Purity (%) ([5]; 40° C./75% RH, 3 Month): 96.1% | Chromatographic Purity (%) ([5]; 40° C./75% RH, 3 Month): 98.4% | Solid forms (XRPD), consistent with Form A ([5]; 40° C./75% RH, 3 Month): Conforms | Total Related Impurities (%) ([5]; 40° C./75% RH, 3 Month): 1.60% | Water (%) ([5]; 40° C./75% RH, 3 Month): 2.0% | proposed re-test period ([5]; when stored at or below 25° C.): 12 months

O=C1CC[C@H](N2C(=O)c3cccc(NCc4ccc(CN5CC(N6CCOCC6)C5)cc4F)c3C2=O)C(=O)N1 [Compound 1 amorphous free base]
hygroscopicity (DVS) ([1]; below 75% RH): relatively high hygroscopicity | sorption/desorption reversibility (DVS) [1]: almost reversible | moisture picked up (DVS) [1]: ~6.0 % wt
